Source: US6864068B2, “Antifungal proteins” (Syngenta Limited, priority 1995, dated 2005)
Square brackets hold non-standard residues; d marks the D form. Ends that are not written are not given here. pGlu = O=C1CC[C@@H](C(=O)O)N1

How the values were obtained:
Fusarium culmorum [1] = assay: Liquid growth inhibition assay in half strength potato dextrose broth; assay type: cell-based; settings: F culmorum
Protocol: Yeast cells transformed with either pTG3828, pMFprepro/Rs AFP2 or PMFpre/RsAFP2 were grown in selective SD medium until a saturated culture was obtained. To assess the antifungal activity of proteins secreted by the yeast cells, the supernatant of the yeast cultures was filtered (sterile 0.22 μm filter) and serially diluted in sterile water. Diluted samples (20 μl) were incubated in microtiter plate wells with 80 μl of half strength potato dextrose broth (Difco) containing spores 10^4 spores/ml) of Fusarium culmorum.
Growth of the fungi was monitored by microspectrophotometry as described by Broekaert et al (1990, FEMS Microbiol Lett, 69:55-60). Homogenates of yeast cells were prepared by spinning down 1 ml of a saturated yeast culture, suspending the cells in 200 μl of water, vortexing the cells in the presence of 0.2 g of glass beads (425-600 μm), and clearing the homogenate by centrifugation (1 min, 10000×g). Antifungal activity could only be detected in the culture medium of yeast cells transformed with pMFprepro/RsAFP2, which contained about 2 μg/ml of Rs-AFP2 equivalents. The activity of the homogenate of these cells, as well as that of culture media and cell homogenates of yeast cells transformed with pMFpre/RsAFP2 or pTG3828 transformed yeasts was below the detection limit (about 0.2 μg/ml of Rs-AFP2 equivalents).
The supernatant of 100 ml of a saturated culture of yeast transformed with pMFprepro/RsAFP2 (grown on minimal selective SD medium supplemented with 0.5% w/v of casamino acids) was centrifuged (4000 rpm, 10 min), and filtered (0.45 μm) to remove yeast cells and debris. Tris-HC1 (pH9) was added to the supernatant to a final concentration of 50 mM. The sample was loaded at a flow rate of 2 ml/min on an anion exchange chromatography column (Q-Sepharose Fast Flow, 20 ml bed volume, Pharmacia), on-line connected with a disposable reversed-phase C8 silica column (Bond Elut, 500 mg solid phase, Varian, Harbor City, USA). The antifungal activity was not retained on the Q-Sepharose matrix but bound to the C8 silica matrix. […] The latter eluate was dried in a rotating vacuum concentrator, redissolved in 0.5 ml 15% (v/v) acetonitrile containing 0.1% (v/v) TFA, and was loaded on a reversed-phase C2/C18 silica column (Pep-S, 5 μm beads, 0.4×25 cm, Pharmacia connected to a Waters 600 HPLC station pre-equilibriated with 15% acetonitrile containing 0.1% (v/v) TFA. After loading, the column was rinsed with the same buffer until the absorbance reached background level. The column was subsequently eluted with a 15 minute linear gradient from 15% to 50% acetonitrile containing 0.1% TFA at a flow rate of 1 ml/min. The eluate was monitored for proteins by on-line measurement of the absorbance at 280 nm. […] Twenty μl fractions were tested in a liquid growth inhibition assay: 20 μl samples were incubated in microtiter plate wells with 80 μl of half strength potato dextrose broth (Difco) containing 10^4 spores/ml of F culmorum; growth of the fungi was monitored by microspectrophotometry as described by Broekaert et al (1990, FEMS Microbiol Lett, 69: 55-60).
The specific antifungal activity of RPC-purified peak A material, as well as that of plant-derivable Rs-AFP2, was determined by measuring the percentage growth inhibition of F culmorum caused by serial dilutions of the protein samples. […]

F culmorum = assay: Growth inhibition in SMF with varying CaCl2 or KCl (FIG. 7); assay type: cell-based
Protocol: Their antifungal activity was determined in SMF with increasing Ca^2+ or K^+ concentration and compared with that of plant-derivable wild type Rs-AFP2 (isolated from seed) as well as yeast purified Rs-AFP2. FIG. 7 is a graph of the percentage growth inhibition of F culmorum caused by 10 μg/ml of yeast-purified Rs-AFP2 (SEQ ID NO: 20) (open circles), seed-purified Rs-AFP2 (SEQ ID NO: 77) (closed circles), Rs-AFP2/G9R (SEQ ID NO: 38) (squares) and Rs-AFP2/V39R (SEQ ID NO: 43) (triangles) in a medium consisting of SMF with varying concentrations of CaCl2 (panel A) and KCl (panel B).

Alternaria brassicicola = assay: Antifungal activity in three media differing in ionic strength (Table 3); assay type: cell-based; settings: 72 hours
Protocol: (§1) The antifungal activity of the G9R and V39R Rs-AFP2 isoforms was also assessed on a set of seven different phytopathogenic fungi in three media differing in ionic strength: SMF−, SMF plus 1 mM CaCl2 and 50 mM KCl, and SMF plus 5 mM CaCl2 and 50 mM KCl. The fungi tested were: Alternaria brassicicola, Ascochyta pisi, Botrytis cinerea, Fusarium culmorum, Nectria haematococca, Phoma betae and Verticillium dahliae.

Ascochyta pisi = assay: as above; assay type: cell-based; settings: 72 hours
Protocol: as §1

Botrytis cinerea = assay: as above; assay type: cell-based; settings: 72 hours
Protocol: as §1

Fusarium culmorum [2] = assay: as above; assay type: cell-based; settings: 96 hours
Protocol: as §1

Nectria haematococca = assay: as above; assay type: cell-based; settings: 72 hours
Protocol: as §1

Phoma betae = assay: as above; assay type: cell-based
Protocol: as §1

Verticillium dahliae = assay: as above; assay type: cell-based; settings: 96 hours
Protocol: as §1

various fungi = settings: cited from earlier work

Rs-AFP2: plant-derivable wild-type antifungal protein 2 from Raphanus sativus (radish) seeds ([pGlu]KLCQRPSGTWSGVCGNNNACKNQCIRLEKARHGSCNYVFPAHKCICYFPC; cysteine pairing not given here; listed as Raphanus sativus) [reference compound]
IC50 (concentration required for 50% growth inhibition) (Fusarium culmorum [1]; from dose-response curves of serial dilutions): about 3 μg/ml | type of inhibition (hyphal morphology) (Fusarium culmorum [1]; induction of multiple branches near the tips): characteristic morphological distortion of the fungal hyphae | activity in the presence of 100 mM KCl (F culmorum; SMF with 100 mM KCl, FIG. 7, 10 μg/ml): drastically reduced | CaCl2 concentration at which fully active (F culmorum; protein 10 μg/ml): ≤ 1.25 mM | growth inhibition in the presence of 5mM CaCl2 (F culmorum; protein 10 μg/ml, SMF with 5mM CaCl2): basically inactive | IC50 VALUES, A brassicicola, SMF + 1 mM CaCl2/50 mM KCl (Alternaria brassicicola): >50 µg/mL | IC50 VALUES, A brassicicola, SMF + 5 mM CaCl2/50 mM KCl (Alternaria brassicicola): >100 µg/mL | IC50 VALUES, A brassicicola, SMF (Alternaria brassicicola; SMF−): 3.2 µg/mL | IC50 VALUES, A pisi, SMF + 1 mM CaCl2/50 mM KCl (Ascochyta pisi): >50 µg/mL | IC50 VALUES, A pisi, SMF + 5 mM CaCl2/50 mM KCl (Ascochyta pisi): >100 µg/mL | IC50 VALUES, A pisi, SMF (Ascochyta pisi; SMF−): 1.9 µg/mL | IC50 VALUES, B cinerea, SMF + 1 mM CaCl2/50 mM KCl (Botrytis cinerea): >50 µg/mL | IC50 VALUES, B cinerea, SMF + 5 mM CaCl2/50 mM KCl (Botrytis cinerea): >100 µg/mL | IC50 VALUES, B cinerea, SMF (Botrytis cinerea; SMF−): 1.8 µg/mL | IC50 VALUES, F culmorum, SMF + 1 mM CaCl2/50 mM KCl (Fusarium culmorum [2]): 4.6 µg/mL | IC50 VALUES, F culmorum, SMF + 5 mM CaCl2/50 mM KCl (Fusarium culmorum [2]): 22.0 µg/mL | IC50 VALUES, F culmorum, SMF (Fusarium culmorum [2]; SMF−): 2.1 µg/mL | IC50 VALUES, N haematococca, SMF + 1 mM CaCl2/50 mM KCl (Nectria haematococca): 48.0 µg/mL | IC50 VALUES, N haematococca, SMF + 5 mM CaCl2/50 mM KCl (Nectria haematococca): >100 µg/mL | IC50 VALUES, N haematococca, SMF (Nectria haematococca; SMF−): 2.0 µg/mL | IC50 VALUES, P betae, SMF + 1 mM CaCl2/50 mM KCl (Phoma betae; 72 hours): 14.0 µg/mL | IC50 VALUES, P betae, SMF + 5 mM CaCl2/50 mM KCl (Phoma betae; 72 hours): 27.0 µg/mL | IC50 VALUES, P betae, SMF (Phoma betae; SMF−, 72 hours): 0.9 µg/mL | activity against P betae compared with the G9R and V39R isoforms, in words (Phoma betae; Table 3 data): appeared to be more active | IC50 VALUES, V dahliae, SMF + 1 mM CaCl2/50 mM KCl (Verticillium dahliae): 11.0 µg/mL | IC50 VALUES, V dahliae, SMF + 5 mM CaCl2/50 mM KCl (Verticillium dahliae): 50.0 µg/mL | IC50 VALUES, V dahliae, SMF (Verticillium dahliae; SMF−): 1.0 µg/mL | activity relative to Rs-AFP1 on various fungi (various fungi): two- to thirty-fold more active | salt-tolerance relative to Rs-AFP1 (various fungi): increased salt-tolerence
